According to the NIST ThermoML archive (doi:10.1021/je800110r):
Numbers after ± are expanded uncertainties.

Conditions: 293.15 K, Liquid, Vibrating tube method

CCCCCCCCCC [decane]
Conditions	mass density [kg/m3]
9533 kPa	737 ± 2
9562 kPa	737.1 ± 2
9590 kPa	737 ± 2
9615 kPa	737.1 ± 2
9642 kPa	737.1 ± 2
9666 kPa	737.1 ± 2
9687 kPa	737.2 ± 2
9718 kPa	737.2 ± 2
9743 kPa	737.1 ± 2
9767 kPa	737.3 ± 2
9799 kPa	737.3 ± 2
9821 kPa	737.3 ± 2
9853 kPa	737.3 ± 2
9871 kPa	737.2 ± 2
9897 kPa	737.3 ± 2
9920 kPa	737.3 ± 2
9953 kPa	737.3 ± 2
9986 kPa	737.4 ± 2
10009 kPa	737.4 ± 2
10042 kPa	737.4 ± 2
10073 kPa	737.4 ± 2
10096 kPa	737.4 ± 2
10134 kPa	737.4 ± 2
10165 kPa	737.6 ± 2
10193 kPa	737.5 ± 2
10218 kPa	737.5 ± 2
10248 kPa	737.6 ± 2
10278 kPa	737.6 ± 2
10298 kPa	737.6 ± 2
10313 kPa	737.6 ± 2
10327 kPa	737.6 ± 2
10344 kPa	737.6 ± 2
10358 kPa	737.7 ± 2
10372 kPa	737.7 ± 2
10389 kPa	737.6 ± 2
10406 kPa	737.7 ± 2
10428 kPa	737.8 ± 2
10443 kPa	737.7 ± 2
10461 kPa	737.8 ± 2
10481 kPa	737.6 ± 2
10498 kPa	737.7 ± 2
10516 kPa	737.8 ± 2
10533 kPa	737.7 ± 2
10550 kPa	737.8 ± 2
10570 kPa	737.8 ± 2
10587 kPa	737.8 ± 2
10602 kPa	737.7 ± 2
10625 kPa	737.8 ± 2
10645 kPa	737.9 ± 2
10661 kPa	737.8 ± 2
10679 kPa	737.8 ± 2
10697 kPa	737.9 ± 2
10715 kPa	737.9 ± 2
10735 kPa	737.9 ± 2
10753 kPa	737.9 ± 2
10768 kPa	737.8 ± 2
10787 kPa	737.9 ± 2
10803 kPa	737.8 ± 2
10824 kPa	738 ± 2
10842 kPa	738 ± 2
10860 kPa	737.9 ± 2
10879 kPa	738.1 ± 2
10892 kPa	738 ± 2
10913 kPa	738 ± 2
10929 kPa	737.9 ± 2
10950 kPa	738.1 ± 2
10966 kPa	738 ± 2
10985 kPa	738.1 ± 2
